US5444056A, “Aminoalkoxyphenyl derivatives, process for their preparation and compositions containing them” (Sanofi, priority 1989, dated 1995)
Structures can show the parent of a compound that is named as a salt.

Key:
[1] = test system: contractile response to potassium-induced depolarization on isolated rat aorta; assay: Calcium inhibitory properties: antagonism of contractile response to potassium-induced depolarization on isolated rat aorta; parameters: species or system rat (male Wistar); details: percent of maximal contraction before incubation, 60 min
Description: It is well established that the depolarization of a smooth muscle membrane by potassium makes the latter permeable to extracellular calcium and induces muscle contraction. Consequently, the measurement of inhibition of the contractile response to depolarization by potassium or the measurement of relaxation of the tonic contraction on potassium depolarization can provide an evaluation of the potency of a compound as an inhibitor of the membrane permeability to Ca^++ ions. The technique used is the following: The aorta is removed from male Wistar rats weighing about 300 g and cut into strips approximately 40 mm long and 3 mm wide. These fragments are placed in a 25 ml isolated organ bath containing modified Krebs-bicarbonate solution (112 mM NaCL; 5 mM KCl; 25 mM NaHCO3; 1 mM KH2 PO4; 1.2 mM MgSO4; 2.5 mM CaCl2; 11.5 mM glucose, made up to 1000 ml with distilled water) maintained at 37° C. and through which a stream of carbon dioxide is passed. The preparation is connected to a force microsensor and the contractile response is recorded after amplification on a recorder. A tension of 2g is applied to the preparation. This latter is maintained in the modified Krebs-bicarbonate solution for 60 minutes, and then contractions are induced by replacing the Krebsbi-carbonate solution by a Krebs-potassium solution (17 mM NaCl; 100 mM KCl; 25 mM NaHCO3; 1 mM KH2 PO4; 1.2 mM MgSO4; 2.5 mM CaCl2; 11.5 mM glucose; made up to 1000 ml with distilled water). When the contractile response of the preparation has become reproducible, a given amount of the compound of the invention is introduced into the bath. Sixty minutes later a new spasm is induced by potassium depolarization. The results obtained on the aorta under investigation are then expressed in percent of the maximal contractional effect before incubation with the test substance. As examples, the following results were obtained, the compounds of formula (1) being in the form of the free base, the hydrochloride, oxalate or fumarate.

[2] = test system: acceleration of the heart rate induced by isoprenaline (anti-β effect); assay: Anti-β effect: reduction of isoprenaline-induced acceleration of the heart rate in anesthetized atropinized dog; format: in vivo; parameters: key to Anti-β effect: +: for a reduction <50%; ++: for a reduction ≥50%; +++: for an almost complete reduction
Description: The aim of this test is to determine the capacity of the compounds of the invention to reduce the increase in blood pressure induced by epinephrine (anti-αeffect) and the acceleration of the heart rate induced by isoprenaline (anti-βeffect) in the dog previously anesthetized with pentobarbital and atropinized.
(§1) First, are determined for each dog the dose of epinephrine (between 3 and 10 μg/kg) which causes a reproducible increase in arterial blood pressure of about 133.10^2 Pa and the dose of isoprenaline (1 to 2 μg/kg) which causes a reproducible increase in the heart rate of about 70 beats/minute. The doses of epinephrine and isoprenaline thus determined are injected alternatively every ten minutes and after the two consecutive reference responses have been obtained, a quantity of the test compound is administered by the intravenous route.
The percentage reduction of the acceleration of the heart rate caused by the test compound compared with the reference tachycardia previously measured (about 70 beats) is recorded.
In both cases, the results of the reduction in arterial pressure and heart rate are expressed as follows: […]

[3] = test system: increase in blood pressure induced by epinephrine (anti-α effect); assay: Anti-α effect: reduction of epinephrine-induced increase in blood pressure in anesthetized atropinized dog; format: in vivo; parameters: key: +: for a reduction <50%; ++: for a reduction ≥50%; +++: for an almost complete reduction
Description: as §1, with “The aim of this test is to determine the capacity of the compounds of the invention to reduce the increase in blood pressure induced by epinephrine (anti-αeffect) and the acceleration of the heart rate induced by isoprenaline (anti-βeffect) in the dog previously anesthetized with pentobarbital and atropinized. First,” for “First,”, “route. The percentage reduction of the hypertension caused by the test compound in comparison with the reference hypertension previously obtained (about 100 mm Hg) is recorded. In both cases, the results of the reduction in arterial pressure and heart rate are expressed as follows: […]” for “route.”

Compound: COc1ccc(CCN(C)CCCOc2ccc(S(=O)(=O)c3c(C(C)C)cn4ccccc34)cc2)cc1OC [C, reference compound]
- % maximal contractional effect ([1]; 10^-8 M, 0.01 µM): 40,1%
- % maximal contractional effect ([1]; 10^-9 M, 0.001 µM): 81,7%
- Anti-β effect ([2]; intravenous, 0,1 mg/kg): +++
- Anti-α effect ([3]; intravenous, 0,1 mg/kg): +++

Compound: COc1ccc2[nH]c(S(=O)(=O)c3ccc(OCCCN(C)CCc4ccc(OC)c(OC)c4)cc3)c(C(C)C)c2c1 [Ex. 62, 2-{4-[3-(N-methyl N-3,4-dimethoxy-β-phenethylamino)propoxy]benzenesulfonyl} 3-isopropyl 5-methoxy indole hydrogen oxalate]
- % maximal contractional effect ([1]; 10^-7 M, 0.1 µM): 37,1%
- % maximal contractional effect ([1]; 10^-8 M, 0.01 µM): 48,7%
- % maximal contractional effect ([1]; 10^-9 M, 0.001 µM): 93,7%
- % maximal contractional effect ([1]; 10^-10 M, 0.0001 µM): 90,3%
- inhibition in vivo at 1 mg/kg ([2]; Canis lupus familiaris, intravenous, 1 mg/kg): ≥ 50%
- Anti-α effect ([3]; intravenous, 1 mg/kg): +++

Compound: CCCCc1oc2ccc(Br)cc2c1S(=O)(=O)c1ccc(OCCCN(C)CCc2ccc(OC)c(OC)c2)cc1 [Ex. 8, 5-bromo 2-n-butyl 3-{4[3-(N-methyl N-3,4-dimethoxy-β-phenethylamino)propoxy]benzenesulfonyl}benzofuran hydrogen oxalate]
- % maximal contractional effect ([1]; 10^-6 M, 1 µM): 61,5%
- % maximal contractional effect ([1]; 10^-7 M, 0.1 µM): 79,4%
- Anti-β effect ([2]; intravenous, 1,5 mg/kg): +++
- Anti-α effect ([3]; intravenous, 1,5 mg/kg): +++

Compound: COc1ccc(CCN(C)CCCOc2ccc(S(=O)(=O)c3c(C(C)C)nn4c(C)cccc34)cc2)cc1OC [Ex. 50, 3-{4-[3-(N-methyl N-3,4-dimethoxy-β-phenethylamino)propoxy]benzenesulfonyl} 2-isopropyl 7-methyl pyrazolo[1,5-a]pyridine hydrogen oxalate]
- % maximal contractional effect ([1]; 10^-8 M, 0.01 µM): 29,1%
- % maximal contractional effect ([1]; 10^-9 M, 0.001 µM): 65,6%
- % maximal contractional effect ([1]; 10^-10 M, 0.0001 µM): 86,3%
- Anti-β effect ([2]; intravenous, 0,13 mg/kg): +++
- Anti-α effect ([3]; intravenous, 0,13 mg/kg): +++

Compound: CCCCN(CCCC)CCCOc1ccc(S(=O)(=O)c2c(C(C)C)c3cc(OC)ccc3n2C)cc1.O=C(O)C(=O)O [Ex. 64, 2-{4-[3-(di-n-butylamino)propoxy]benzenesulfonyl} 3-isopropyl 5-methoxy 1-methyl indole hydrogen oxalate]
- % maximal contractional effect ([1]; 10^-7 M, 0.1 µM): 69,3%
- % maximal contractional effect ([1]; 10^-8 M, 0.01 µM): 72,6%
- % maximal contractional effect ([1]; 10^-9 M, 0.001 µM): 93,9%
- Anti-α effect ([3]; intravenous, 0,5 mg/kg): +++

Compound: COc1ccc(CCN(C)CCCOc2ccc(S(=O)(=O)c3c(C(C)C)cn4c(C)cccc34)cc2)cc1OC [Ex. 79, 2-Isopropyl 5-methyl 1-{4-[3-(N-methyl N-3,4-dimethoxy-β-phenethylamino)propoxy]benzenesulfonyl}indolizine]
- % maximal contractional effect ([1]; 10^-8 M, 0.01 µM): 29,8%
- % maximal contractional effect ([1]; 10^-9 M, 0.001 µM): 77,9%
- % maximal contractional effect ([1]; 10^-10 M, 0.0001 µM): 87,3%
- Anti-α effect ([3]; intravenous, 0,07 mg/kg): +++

Compound: CCCCN(CCCC)CCCOc1ccc(S(=O)(=O)c2c(C(C)C)cn3cccc(C)c23)cc1 [Ex. 75, 1-{4-[3-(di-n-butylamino)propoxy]benzenesulfonyl} 2-isopropyl 8-methyl indolizine]
- % maximal contractional effect ([1]; 10^-8 M, 0.01 µM): 9,7%
- % maximal contractional effect ([1]; 10^-9 M, 0.001 µM): 51,4%
- % maximal contractional effect ([1]; 10^-10 M, 0.0001 µM): 83,8%
- Anti-α effect ([3]; intravenous, 0,02 mg/kg): ++ (for a reduction ≥50%)

Compound: CCCCN(CCCC)CCCOc1ccc(S(=O)(=O)c2c(C(C)C)n(C)c3ccc(Cl)cc23)cc1.O=C(O)C(=O)O [Ex. 44, 1-methyl 2-isopropyl 3-{4-[3-(di-n-butylamino)propoxy]benzenesulfonyl} 5-chloro indole hydrogen oxalate]
- % maximal contractional effect ([1]; 10^-7 M, 0.1 µM): 69,6%
- % maximal contractional effect ([1]; 10^-8 M, 0.01 µM): 85,7%
- Anti-α effect ([3]; intravenous, 1,2 mg/kg): ++ (for a reduction ≥50%)

Compound: COc1ccc(CCN(C)CCCOc2ccc(S(=O)(=O)c3c(C(C)C)c4cccc(C)c4n3C)cc2)cc1OC [Ex. 55, 2-{4-[3-(N-methyl N-3,4-dimethoxy-β-phenethylamino)propoxy]benzenesulfonyl} 3-isopropyl 1,7-dimethyl indole hydrogen oxalate]
- % maximal contractional effect ([1]; 10^-7 M, 0.1 µM): 45,8%
- % maximal contractional effect ([1]; 10^-8 M, 0.01 µM): 56,4%
- % maximal contractional effect ([1]; 10^-9 M, 0.001 µM): 79%
- % maximal contractional effect ([1]; 10^-10 M, 0.0001 µM): 85,7%
- Anti-β effect ([2]; intravenous, 0,07 mg/kg): +++
- Anti-α effect ([3]; intravenous, 0,07 mg/kg): +++

Compound: COc1ccc(CCN(C)CCCOc2ccc(S(=O)(=O)c3c(C(C)C)c4ccccc4n3CCCN(C)CCc3ccc(OC)c(OC)c3)cc2)cc1OC [Ex. 10, 2-{4-[3-(N-methyl N-3,4-dimethoxy-β-phenethylamino)propoxy]benzenesulfonyl} 1-[3-(N-methyl N-3,4-dimethoxy-β-phenethylamino)propyl] 3-isopropyl indole dioxalate]
- % maximal contractional effect ([1]; 10^-7 M, 0.1 µM): 78,9%
- % maximal contractional effect ([1]; 10^-8 M, 0.01 µM): 90,2%
- Anti-β effect ([2]; intravenous, 4,9 mg/kg): +++
- Anti-α effect ([3]; intravenous, 4,9 mg/kg): +++

Compound: COc1ccc(CCN(C)CCCOc2ccc(S(=O)(=O)c3c(C(C)C)n(C)c4cccc(C)c34)cc2)cc1OC [Ex. 65, 3-{4-[3-(N-methyl N-3,4-dimethoxy-β-phenethylamino)propoxy]benzenesulfonyl} 2-isopropyl 1,4-dimethyl indole hydrogen oxalate]
- % maximal contractional effect ([1]; 10^-7 M, 0.1 µM): 14,3%
- % maximal contractional effect ([1]; 10^-8 M, 0.01 µM): 29,9%
- % maximal contractional effect ([1]; 10^-9 M, 0.001 µM): 76,1%
- % maximal contractional effect ([1]; 10^-10 M, 0.0001 µM): 83,5%
- Anti-β effect ([2]; intravenous, 0,1 mg/kg): +++
- Anti-α effect ([3]; intravenous, 0,1 mg/kg): +++

Compound: 2-isopropyl 8-methyl 1-{4-[3-(6,7-dimethoxy 1,2,3,4-tetrahydro N-isoquinolin-2-yl)propoxy]benzenesulfonyl}indolizine hydrogen oxalate [Ex. 2]
- Anti-β effect ([2]; intravenous, 0,065 mg/kg): +++
- Anti-α effect ([3]; intravenous, 0,065 mg/kg): +++

Compound: COc1ccc(CCN(C)CCCOc2ccc(S(=O)(=O)c3c(C(C)C)n(CCN(C)C)c4ccccc34)cc2)cc1OC [Ex. 11, 3-{4-[3-(N-methyl N-3,4-dimethoxy-β-phenethylamino)propoxy]benzenesulfonyl} 1-dimethylaminoethyl 2-isopropyl indole dioxalate]
- % maximal contractional effect ([1]; 10^-7 M, 0.1 µM): 66,7%
- % maximal contractional effect ([1]; 10^-8 M, 0.01 µM): 85,9%
- Anti-α effect ([3]; intravenous, 1,6 mg/kg): ++ (for a reduction ≥50%)

Compound: CCCCN(CCCC)CCCOc1ccc(S(=O)(=O)c2c(C(C)C)cn3ccccc23)cc1 [B, reference compound]
- % maximal contractional effect ([1]; 10^-8 M, 0.01 µM): 61%
- Anti-α effect ([3]; intravenous, 0,5 mg/kg): ++ (for a reduction ≥50%)

Compound: CC(C)c1c(S(=O)(=O)c2ccc(OCCCN(C)C3CCCc4ccccc43)cc2)c2cc(Cl)ccc2n1C.O=C(O)C(=O)O (stereo not shown) [Ex. 47, 1-methyl 2-isopropyl 3-{4-[3-(N-methyl N-1,2,3,4-tetrahydronaphth-1-ylamino)propoxy]benzenesulfonyl} 5-chloro indole hydrogen oxalate]
- % maximal contractional effect ([1]; 10^-7 M, 0.1 µM): 75,3%
- % maximal contractional effect ([1]; 10^-8 M, 0.01 µM): 88,3%
- % maximal contractional effect ([1]; 10^-9 M, 0.001 µM): 91,4%
- Anti-α effect ([3]; intravenous, 6,6 mg/kg): ++ (for a reduction ≥50%)

Compound: COc1ccc(CCN(C)CCCOc2ccc(S(=O)(=O)c3c(C(C)C)n(C)c4ccc(Cl)cc34)cc2)cc1OC [Ex. 13, 3-{4-[3-(N-methyl N-3,4-dimethoxy-β-phenethylamino)propoxy]benzenesulfonyl} 5-chloro 2-isopropyl 1-methylindole]
- % maximal contractional effect ([1]; 10^-7 M, 0.1 µM): 35,5%
- % maximal contractional effect ([1]; 10^-8 M, 0.01 µM): 79,2%
- Anti-α effect ([3]; intravenous, 0,6 mg/kg): +++
